Biological target: T1, Rat PDE1B (Rattus norvegicus, UniProt Q01066)
T1 construct: made in house; host or cells: baculovirus-infected insect cells
T1 sequence (Q01066 1-535): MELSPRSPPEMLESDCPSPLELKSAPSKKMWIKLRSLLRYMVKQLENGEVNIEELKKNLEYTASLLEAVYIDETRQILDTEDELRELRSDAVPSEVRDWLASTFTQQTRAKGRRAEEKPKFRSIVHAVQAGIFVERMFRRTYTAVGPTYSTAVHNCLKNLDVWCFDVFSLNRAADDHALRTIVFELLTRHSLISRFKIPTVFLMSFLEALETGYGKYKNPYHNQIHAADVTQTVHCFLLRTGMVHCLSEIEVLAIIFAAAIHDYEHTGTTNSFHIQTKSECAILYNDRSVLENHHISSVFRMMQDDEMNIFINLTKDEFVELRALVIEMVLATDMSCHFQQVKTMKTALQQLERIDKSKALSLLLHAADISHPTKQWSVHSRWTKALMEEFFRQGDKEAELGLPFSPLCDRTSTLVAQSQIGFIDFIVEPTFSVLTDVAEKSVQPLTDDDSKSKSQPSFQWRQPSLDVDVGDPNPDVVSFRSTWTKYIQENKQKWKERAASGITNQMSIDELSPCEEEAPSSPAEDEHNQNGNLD
Assay: PDE scintillation proximity enzyme assay
Type: biochemical
Experimental: All PDE enzyme activities were measured with a yittrium silicate based scintillation proximity assay that detects radioactive nucleotide monophosphates but not cyclic monophosphates. Assays are conducted in a total volume of 50 μl in 384 well plates (3706, Corning): comprised of 24 μl enzyme, 1 μl compound, and 25 μl of cyclic nucleotide. The general assay buffer consists of 50 mM Tris-HCl (pH 7.5) and 0.1% (w/v) bovine serum albumin (Fatty Acid Free, Sigma-Aldrich). Enzyme concentrations, substrate concentrations, and various PDE-specific buffer additives are described in Supplementary Table 1. Compounds to be tested are diluted in pure dimethyl sulfoxide (DMSO) using 10-point concentration-response curves, and 1 μl is acoustically dispensed into assay plates using the Echo555 (LabCyte). Maximal compound concentration in the reaction mixture is either 10 or 100 μM. Compounds at the appropriate concentration are pre-incubated with either of the PDE enzymes for 30 min before the reaction is started by the addition of substrate ([8-^3H]-cAMP, 20.7 Ci/mmol or [8-^3H]-cGMP; 6.5 Ci/mmol, Perkin Elmer). Reactions are allowed to proceed for 60 min at room temperature before quenching. Next, reactions are stopped by the addition of 400 μg/per well SPA beads (RPNQ0150, Perkin Elmer) and a potent non-selective PDE inhibitor to quench the reaction. Bead bound radioactivity (product) is quantified 12 h later a Microbeta counter (Perkin Elmer). Data is normalized to % inhibition using standard methods ([Campbell et al., 2004]), and IC50 values were plotted using PRISM (GraphPad Software) using the 4 parameter logistic equation ([Campbell et al., 2004]). Data for potency values are expressed as the geometric mean and arithmetic standard deviation.

- IC50: 1 nM
SMILES: O=c1c2nnc(C3(C4CC4)CC3)n2c2c(n1CC1CC1)CCCC2 [BTTQ, 1-[1,1′-bi(cyclopropyl)-1-yl]-5-(cyclopropylmethyl)-6,7,8,9-tetrahydro[1,2,4]triazolo[4,3-A]quinoxaline-4(5H)-one]
